Source: paper PMC7322745 (Journal of Ginseng Research, 2019)

Type: in vivo, human
Conditions: for Tmax: both, human, serum, oral, 3 g, mean Tmax, all participants (RG and FRG groups together)

| Tmax [h] | AUC in the FRG group relative to the RG group (mean AUC, FRG group vs RG group) | SMILES |
| --- | --- | --- |
| 9.32 ± 3.38 | more than six | CC(C)=CCC[C@](C)(O[C@@H]1O[C@H](CO)[C@@H](O)[C@H](O)[C@H]1O)[C@H]1CC[C@]2(C)[C@@H]1[C@H](O)C[C@@H]1[C@@]3(C)CC[C@H](O[C@@H]4O[C@H](CO)[C@@H](O)[C@H](O)[C@H]4O)C(C)(C)[C@@H]3CC[C@]12C [F2, ginsenoside F2] |
| 9.41 ± 4.42 |  | CC(C)=CCC[C@](C)(O[C@@H]1O[C@H](CO)[C@@H](O)[C@H](O)[C@H]1O)[C@H]1CC[C@]2(C)[C@@H]1[C@H](O)C[C@@H]1[C@@]3(C)CC[C@H](O[C@@H]4O[C@H](CO)[C@@H](O)[C@H](O)[C@H]4O[C@@H]4O[C@H](CO)[C@@H](O)[C@H](O)[C@H]4O)C(C)(C)[C@@H]3CC[C@]12C [Rd, ginsenoside Rd] |
